Measured values from PMC9518264, “Design and synthesis of novel quinazolinone-based derivatives as EGFR inhibitors with antitumor activity” (Journal of Enzyme Inhibition and Medicinal Chemistry, 2022).

What was measured:
[1] = test system: SNB-75; test: cells; type: cell-based
[2] = test system: U251; test: cells; type: cell-based
[3] = test system: LOX IMIV; test: cells; type: cell-based
[4] = test system: MDA-MB-435; test: cells; type: cell-based
[5] = test system: SK-MEL-28; test: cells; type: cell-based
[6] = test system: SK-MEL-5; test: cells; type: cell-based
[7] = test system: UACC-62; test: cells; type: cell-based
[8] = test system: IGROV1; test: cells; type: cell-based
[9] = test system: OVCAR-4; test: cells; type: cell-based
[10] = test system: NCI/ADR-RES; test: cells; type: cell-based
[11] = test system: SK-OV-3; test: cells; type: cell-based
[12] = test system: 786-0; test: cells; type: cell-based
[13] = test system: A498; test: cells; type: cell-based
[14] = test system: ACHN; test: cells; type: cell-based
[15] = test system: SN12C; test: cells; type: cell-based
[16] = test system: TK-10; test: cells; type: cell-based
[17] = test system: PC-3; test: cells; type: cell-based
[18] = test system: DU-145; test: cells; type: cell-based
[19] = test system: MCF7; test: cells; type: cell-based
[20] = test system: BT-549; test: cells; type: cell-based
[21] = test system: panel of 60 tumour cell lines; test: NCI 60 cell line antiproliferative screening (SRB), whole panel or subpanels (means, ranges, words); type: cell-based, human
[22] = test system: MDA-MB-468; test: NCI 60 cell line antiproliferative screening (SRB), Breast cancer
[23] = test system: OVCAR-3; test: NCI 60 cell line antiproliferative screening (SRB), Ovarian cancer
[24] = Homo sapiens, 5 doses, read-out: LC50 (the source's name)
[25] = Homo sapiens, read-out: growth inhibition % (GI%)

## O=C(CSc1nc2ccccc2c(=O)n1-c1ccc(Cl)cc1)NN=Cc1ccc(Oc2ccc(Cl)cc2)cc1 [6d, N'-(4–(4-chlorophenoxy)benzylidene)-2-((3–(4-chlorophenyl)-4-oxo-3,4-dihydroquinazolin-2-yl)thio)acetohydrazide]
[1]; Homo sapiens, SNB-75
  GI50: 3.99 µM
[1]; Homo sapiens, SNB-75, read-out: growth inhibition % (GI%)
  inhibition at 10 µM: 42.1%
[1]; Homo sapiens, SNB-75, 5 doses, read-out: LC50 (the source's name)
  CC50: > 100 µM
[1]; SNB-75, 5 doses
  TGI: 29.2 µM
[2]; Homo sapiens, U-251
  GI50: 1.65 µM
[2]; Homo sapiens, U-251, read-out: growth inhibition % (GI%)
  inhibition at 10 µM: > 100%
[2]; Homo sapiens, U-251, U251, 5 doses, read-out: LC50 (the source's name)
  CC50: 8.23 µM
[2]; U251, 5 doses
  TGI: 3.69 µM
[3]; Homo sapiens, 60 cell, read-out: growth inhibition % (GI%)
  inhibition at 10 µM: > 100%
[3]; Homo sapiens, LOX IMVI
  GI50: 1.29 µM
[3]; Homo sapiens, LOX IMVI, 5 doses, read-out: LC50 (the source's name)
  CC50: 5.2 µM
[3]; LOX IMVI, 5 doses
  TGI: 2.59 µM
[4]; Homo sapiens, MDA-MB-435
  GI50: 1.93 µM
[4]; Homo sapiens, MDA-MB-435, read-out: growth inhibition % (GI%)
  inhibition at 10 µM: 75%
[4]; Homo sapiens, MDA-MB-435, 5 doses, read-out: LC50 (the source's name)
  CC50: 13 µM
[4]; MDA-MB-435, 5 doses
  TGI: 4.56 µM
[5]; Homo sapiens, SK-MEL-28
  GI50: 1.51 µM
[5]; Homo sapiens, SK-MEL-28, read-out: growth inhibition % (GI%)
  inhibition at 10 µM: 96.8%
[5]; Homo sapiens, SK-MEL-28, 5 doses, read-out: LC50 (the source's name)
  CC50: 6.01 µM
[5]; SK-MEL-28, 5 doses
  TGI: 3.01 µM
[6]; Homo sapiens, SK-MEL-5
  GI50: 1.75 µM
[6]; Homo sapiens, SK-MEL-5, read-out: growth inhibition % (GI%)
  inhibition at 10 µM: 89.1%
[6]; Homo sapiens, SK-MEL-5, 5 doses, read-out: LC50 (the source's name)
  CC50: 7.07 µM
[6]; SK-MEL-5, 5 doses
  TGI: 3.51 µM
[7]; Homo sapiens, UACC-62
  GI50: 1.59 µM
[7]; Homo sapiens, UACC-62, read-out: growth inhibition % (GI%)
  inhibition at 10 µM: 99.6%
[7]; Homo sapiens, UACC-62, 5 doses, read-out: LC50 (the source's name)
  CC50: 6.38 µM
[7]; UACC-62, 5 doses
  TGI: 3.18 µM
[8]; Homo sapiens, IGROV-1
  GI50: 1.51 µM
[8]; Homo sapiens, IGROV-1, read-out: growth inhibition % (GI%)
  inhibition at 10 µM: 79.4%
[8]; Homo sapiens, IGROV-1, IGROV1, 5 doses, read-out: LC50 (the source's name)
  CC50: 7.12 µM
[8]; IGROV1, 5 doses
  TGI: 3.28 µM
[9]; Homo sapiens, OVCAR-4
  GI50: 1.89 µM
[9]; Homo sapiens, OVCAR-4, read-out: growth inhibition % (GI%)
  inhibition at 10 µM: 98.3%
[9]; Homo sapiens, OVCAR-4, 5 doses, read-out: LC50 (the source's name)
  CC50: 17.5 µM
[9]; OVCAR-4, 5 doses
  TGI: 4.57 µM
[10]; 5 doses
  TGI: 3.56 µM
[10]; Homo sapiens
  GI50: 1.64 µM
[10]; [24]
  CC50: 7.76 µM
[10]; [25]
  inhibition at 10 µM: 84.3%
[11]; Homo sapiens, SK-OV-3
  GI50: 3.26 µM
[11]; Homo sapiens, SK-OV-3, read-out: growth inhibition % (GI%)
  inhibition at 10 µM: 66.2%
[11]; Homo sapiens, SK-OV-3, 5 doses, read-out: LC50 (the source's name)
  CC50: 49.4 µM
[11]; SK-OV-3, 5 doses
  TGI: 11.9 µM
[12]; 786-0, 5 doses
  TGI: 6.41 µM
[12]; Homo sapiens, 786-0
  GI50: 2.51 µM
[12]; Homo sapiens, 786-0, read-out: growth inhibition % (GI%)
  inhibition at 10 µM: > 100%
[12]; Homo sapiens, 786-0, 5 doses, read-out: LC50 (the source's name)
  CC50: 26.5 µM
[13]; A498, 5 doses
  TGI: 4.34 µM
[13]; Homo sapiens, A498
  GI50: 1.94 µM
[13]; Homo sapiens, A498, read-out: growth inhibition % (GI%)
  inhibition at 10 µM: > 100%
[13]; Homo sapiens, A498, 5 doses, read-out: LC50 (the source's name)
  CC50: 9.74 µM
[14]; 5 doses
  TGI: 15.2 µM
[14]; Homo sapiens
  GI50: 4.36 µM
[14]; [24]
  CC50: 39 µM
[14]; [25]
  inhibition at 10 µM: 36.5%
[15]; 5 doses
  TGI: 4.14 µM
[15]; Homo sapiens
  GI50: 1.74 µM
[15]; [24]
  CC50: 9.84 µM
[15]; [25]
  inhibition at 10 µM: 54.8%
[16]; Homo sapiens, TK-10
  GI50: 5.97 µM
[16]; Homo sapiens, TK-10, read-out: growth inhibition % (GI%)
  inhibition at 10 µM: 60.3%
[16]; Homo sapiens, TK-10, 5 doses, read-out: LC50 (the source's name)
  CC50: > 100 µM
[16]; TK-10, 5 doses
  TGI: 40.2 µM
[17]; Homo sapiens, PC-3
  GI50: 2.58 µM
[17]; Homo sapiens, PC-3, read-out: growth inhibition % (GI%)
  inhibition at 10 µM: 99.2%
[17]; Homo sapiens, PC-3, 5 doses, read-out: LC50 (the source's name)
  CC50: > 100 µM
[17]; PC-3, 5 doses
  TGI: 9.32 µM
[18]; DU-145, 5 doses
  TGI: 20.4 µM
[18]; Homo sapiens, DU-145
  GI50: 3.52 µM
[18]; Homo sapiens, DU-145, read-out: growth inhibition % (GI%)
  inhibition at 10 µM: 86.9%
[18]; Homo sapiens, DU-145, 5 doses, read-out: LC50 (the source's name)
  CC50: > 100 µM
[19]; Homo sapiens, MCF7
  GI50: 2.01 µM
[19]; Homo sapiens, MCF7, read-out: growth inhibition % (GI%)
  inhibition at 10 µM: 84.5%
[19]; Homo sapiens, MCF7, 5 doses, read-out: LC50 (the source's name)
  CC50: 25.6 µM
[19]; MCF7, 5 doses
  TGI: 5.5 µM
[20]; BT-549, 5 doses
  TGI: 12.2 µM
[20]; Homo sapiens, BT-549
  GI50: 3.28 µM
[20]; Homo sapiens, BT-549, read-out: growth inhibition % (GI%)
  inhibition at 10 µM: > 100%
[20]; Homo sapiens, BT-549, 5 doses, read-out: LC50 (the source's name)
  CC50: 36.2 µM
[21]; Homo sapiens, 60 cell, read-out: GI50 range against most of the tested cancer cell lines
  GI50: 1.29 to 5.97 µM
[21]; Homo sapiens, 60 cell, read-out: Mean growth inhibition % (mean GI%)
  inhibition at 10 µM: 80.2%
[21]; five dose concentrations, good to moderate cytostatic activity
  TGI range against the rest of cell lines: 11.1 to 48.5 µM
[21]; five dose concentrations, high cytostatic activity
  TGI range against 40 cancer cell lines: 2.59 to 9.55 µM
[22]; Homo sapiens, MDA-MB-468
  GI50: 2.08 µM
[22]; Homo sapiens, MDA-MB-468, read-out: LC50
  CC50: 18.8 µM
[22]; Homo sapiens, MDA-MB-468, read-out: growth inhibition % (GI%)
  inhibition at 10 µM: > 100%
[22]; MDA-MB-468, 5 doses
  TGI: 5.08 µM
[23]; Homo sapiens, OVCAR-3
  GI50: 2.75 µM
[23]; Homo sapiens, OVCAR-3, read-out: LC50
  CC50: 38.9 µM
[23]; Homo sapiens, OVCAR-3, read-out: growth inhibition % (GI%)
  inhibition at 10 µM: < 15%
[23]; OVCAR-3, 5 doses
  TGI: 9.55 µM
